Twelve compounds from patent US20230322776A1, “NEW ARYL-PYRIDO-PYRIMIDIN-ONE DERIVATIVES” (Hoffmann-La Roche Inc., priority 2020, published 2023) can be followed below.

Assay [1] deals with BRAF V660E (Homo sapiens, UniProt P15056, V600E). The assay is described as follows: KD BRAF V660E (Table 1; no method described). Format: binding.
In assay [2] the target is BRAF (Homo sapiens, UniProt P15056). The assay is described as follows: KD BRAF (Table 1; no method described). It is filed as binding.
For assay [3], the system named is A375 cells (V600E mutated BRAF), ERK phospho-T202/Y204. The assay is described as follows: HTRF assay for P-ERK determination in A375 cells (BRAF inhibition). It is filed as cell-based. Conditions: Homo sapiens, A-375, 1 hour drug incubation, DMSO = 100%, 10 μM Dabrafenib = 0%, top concentration 10 μM, read-out: P-ERK_A375: IC50. From the text: (§1) A375 is a cellular cancer model expressing V600E mutated BRAF and HCT116 a cellular cancer model expressing WT BRAF. First generation BRAF inhibitors such as e.g. dabrafenib induce a paradox effect on tumour cells in that they inhibit the growth of V600E mutated BRAF cells (such as e.g. A375), while they activate growth in WT BRAF cells (such as e.g. HCT 116). ERK 1,2 phosphorylation (terminal member of the phosphorylation cascade of the MAPK pathway) is hereafter reported as main readout for the activation status of the MAPK pathway. DMEM no-phenol red medium supplemented with L-glutamine was purchased from (Thermo Fisher Scientific). Fetal bovine serum (FBS) was purchased from VWR. Advanced ERK phospho-T202/Y204 kit—10,000 tests was purchased from Cisbio cat #64AERPEH. A375 (catalog #CRL-1619) and HCT116 (catalog #CCL-247) cells were originally obtained from American type Culture Collection (ATCC) and banked by the Roche repository. 384-Well microplates ultized were purchased from Greiner Bio-One, 384-well, (With Lid, HiBase, Low volume cat 784-080).
(§2) HTRF Assay for P-ERK Determination in A375 or HCT116 Cells
(§3) Prior to the assay, A375 and HCT116 cell lines are maintained in DMEM no-phenol red medium supplemented with 10% fetal bovine serum (FBS). Following compound treatment, P-ERK levels are determined by measuring FRET fluorescence signal induced by selective binding of two antibodies provided in the mentioned kit (Cisbio cat #64AERPEH) on ERK protein when phosphorylated at Thr202/Tyr204. Briefly, 8000 cells/well in 12 μl media/well are plated in the 384-well plate and left overnight in the incubator (at 37° C. with 5% CO2-humidified atmosphere), the following day the plate is treated in duplicate with test compounds, dabrafenib and PLX8394 (the latter two as controls) at the following final drug concentrations: 10 μM, 3 μM, 1 μM, 0.3 μM, 0.1 μM, 0.03 μM, 0.01 μM, 0.003 μM and 0.001 μM. All wells are subjected to DMSO normalization and drug incubation occurs for 1 hour. Then, 4 μl of a 4× lysis buffer supplied with the kit are added to the wells, the plate is then centrifuged for 30 second (3000 rpm) and incubated on a plate shaker for 1 h at rt.
(§4) At the end of the incubation 4 μl/well of advanced P-ERK antibody solution (prepared according to manufacturer's instruction) followed by 4 μl/well of criptate P-ERK antibody solution (prepared according to manufacturer's instruction) (Cisbio cat #64AERPEH) are added to test wells.
(§5) In order to allow proper data normalization, control wells non drug treated reported in the following table are always included in each plate (according to manufacturer's instruction):
(§6) The plate is then centrifuged at 3000 rpm for 30 seconds, sealed to prevent evaporation and incubated overnight in the dark at room temperature. The plate is then analyzed and fluorescence emission value collected through a Pherastast FSX (BMG Labtech) apparatus at […]. The obtained fluorescence values are processed according to the formula Ratio=[…]*10000 then the average of the ratio on the blank is subtracted to all values.
Data are normalized in the case of A375 cells (BRAF inhibition) considering the average of the ratio (blank subtracted) derived by DMSO only treated cells as 100% and by considering the average of the ratio (blank subtracted) derived by 10 μM Dabrafenib treated cells as 0%. Mean of the normalized points are fitted with sigmoidal curve and IC50 values are determined.
In general terms: Time-resolved FRET reads energy transfer from a long-lived donor to a nearby acceptor.

The subject of assay [4] is HCT116 cells (WT BRAF), ERK phospho-T202/Y204. Kind of assay: HTRF assay for P-ERK determination in HCT116 cells (BRAF activation, paradox). Format: cell-based. To be noted: for EC50: Homo sapiens, HCT-116, HCT116 cells, 1 hour drug incubation, activation relative to maximum Dabrafenib-mediated activation (100%), top concentration 10 μM, read-out: P-ERK_HCT-116: EC50—50PCT; for Fold Selectivity HCT-116 EC50-50/ A375: ratio of P-ERK HCT-116 EC50-50PCT to P-ERK A375 IC50.
Excerpt: as §1, §2, §3, §4, §5, §6
Data are normalized in the case of HCT116 cells (BRAF activation) considering the average of the ratio (blank subtracted) derived by DMSO only treated cells as 0% and by considering the average of the ratio (blank subtracted) derived by Dabrafenib treated cells at the concentration which provides the highest signal as 100%. Individual points are fitted with either sigmoidal or bell shape curves, the percentage of activation compared to maximum Dabrafenib-mediated activation is determined.

Molecules are shown by their SMILES.

BRAF, sequence (P15056 whole entry): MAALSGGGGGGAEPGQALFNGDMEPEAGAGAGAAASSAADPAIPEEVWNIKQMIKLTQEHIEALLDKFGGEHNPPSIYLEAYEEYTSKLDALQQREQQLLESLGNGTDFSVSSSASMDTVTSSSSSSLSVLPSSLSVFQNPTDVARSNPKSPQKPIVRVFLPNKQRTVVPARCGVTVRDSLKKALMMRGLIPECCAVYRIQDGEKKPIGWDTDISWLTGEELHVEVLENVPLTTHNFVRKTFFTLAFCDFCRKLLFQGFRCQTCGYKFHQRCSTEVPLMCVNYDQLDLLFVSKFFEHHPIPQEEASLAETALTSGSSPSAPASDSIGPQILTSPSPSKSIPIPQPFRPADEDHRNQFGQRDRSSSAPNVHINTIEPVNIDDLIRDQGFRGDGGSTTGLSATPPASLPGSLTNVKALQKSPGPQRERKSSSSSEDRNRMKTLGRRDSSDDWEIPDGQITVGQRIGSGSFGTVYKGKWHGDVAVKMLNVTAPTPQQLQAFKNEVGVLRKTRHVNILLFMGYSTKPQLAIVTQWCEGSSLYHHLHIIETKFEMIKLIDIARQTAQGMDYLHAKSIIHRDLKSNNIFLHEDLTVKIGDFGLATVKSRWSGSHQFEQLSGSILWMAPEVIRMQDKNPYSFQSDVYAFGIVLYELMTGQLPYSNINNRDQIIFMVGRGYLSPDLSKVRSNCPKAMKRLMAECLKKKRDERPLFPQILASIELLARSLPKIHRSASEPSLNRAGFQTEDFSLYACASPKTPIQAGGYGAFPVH
BRAF V660E, sequence (P15056 2-766 V600E): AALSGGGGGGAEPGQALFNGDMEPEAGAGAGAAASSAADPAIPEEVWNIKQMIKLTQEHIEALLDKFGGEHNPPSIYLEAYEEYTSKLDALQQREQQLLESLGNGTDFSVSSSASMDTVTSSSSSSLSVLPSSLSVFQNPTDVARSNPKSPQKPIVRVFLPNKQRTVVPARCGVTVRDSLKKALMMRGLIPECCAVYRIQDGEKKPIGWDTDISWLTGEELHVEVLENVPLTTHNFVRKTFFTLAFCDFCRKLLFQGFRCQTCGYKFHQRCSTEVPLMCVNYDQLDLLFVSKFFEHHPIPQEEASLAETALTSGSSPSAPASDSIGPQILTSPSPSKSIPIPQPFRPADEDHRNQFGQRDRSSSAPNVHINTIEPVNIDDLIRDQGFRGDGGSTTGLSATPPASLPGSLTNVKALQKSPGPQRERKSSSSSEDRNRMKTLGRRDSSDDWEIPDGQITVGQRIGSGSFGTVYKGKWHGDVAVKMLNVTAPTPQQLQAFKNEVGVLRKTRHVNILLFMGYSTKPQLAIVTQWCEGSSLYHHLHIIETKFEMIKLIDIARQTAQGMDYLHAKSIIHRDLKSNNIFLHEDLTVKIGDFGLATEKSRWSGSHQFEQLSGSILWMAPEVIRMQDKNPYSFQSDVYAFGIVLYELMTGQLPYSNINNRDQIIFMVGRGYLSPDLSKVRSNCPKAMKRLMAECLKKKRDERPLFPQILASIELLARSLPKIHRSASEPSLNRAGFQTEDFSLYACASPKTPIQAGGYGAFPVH

For orientation: Kd means a measure of binding affinity in units of concentration. A low value points to a tighter complex. As usually defined, the IC50 is the midpoint of a concentration-inhibition curve. In general, EC50 refers to the concentration that produces a half-maximal response. With `Cl.Cn1c(=O)c(-c2c(F)ccc(NS(=O)(=O)N3CC[C@@H](F)C3)c2F)cc2cnc(NCCCC(=O)NC3CCNCC3)nc21` [Example 19, 4-[[6-[2,6-difluoro-3-[[(3R)-3-fluoropyrrolidin-1-yl]sulfonylamino]phenyl]-8-methyl-7-oxopyrido[2,3-d]pyrimidin-2-yl]amino]-N-piperidin-4-ylbutanamide hydrochloride], in assay [1], the Kd came to 59.6 nM. In addition, binding in assay [2] was put at a Kd of 38.3 nM. Besides, in assay [3], the half-inhibitory concentration (IC50) was determined as 7210 nM. Further, in assay [4], the EC50 is not below 10000 nM and the “Fold Selectivity HCT-116 EC50-50/ A375” value came to 1.4.

With `CC(=O)N1CCC(CCNc2ncc3cc(-c4c(F)ccc(NS(=O)(=O)N5CC[C@@H](F)C5)c4F)c(=O)n(C)c3n2)CC1` [Example 20, (3R)—N-[3-[2-[2-(1-acetylpiperidin-4-yl)ethylamino]-8-methyl-7-oxopyrido[2,3-d]pyrimidin-6-yl]-2,4-difluorophenyl]-3-fluoropyrrolidine-1-sulfonamide], the Kd in assay [1] was 27 nM; in assay [2], 10.2 nM. In assay [3], the IC50 came to 36.7 nM. The EC50 in assay [4] was 1650 nM. For the same compound, the “Fold Selectivity HCT-116 EC50-50/ A375” value in assay [4] stood at 44.9.

Regarding `CC(=O)N1CCC(CNc2ncc3cc(-c4c(F)ccc(NS(=O)(=O)N5CC[C@@H](F)C5)c4F)c(=O)n(C)c3n2)CC1` [Example 21, (3R)-N-[3-[2-[(1-acetylpiperidin-4-yl)methylamino]-8-methyl-7-oxopyrido[2,3-d]pyrimidin-6-yl]-2,4-difluorophenyl]-3-fluoropyrrolidine-1-sulfonamide], in assay [1], binding was characterised by a dissociation constant (Kd) of 109 nM. Moreover, binding in assay [2] was characterised by a dissociation constant (Kd) of 62 nM. Moreover, the IC50 in assay [3] is 86.7 nM. In assay [4], the EC50 was not below 10000 nM and the “Fold Selectivity HCT-116 EC50-50/ A375” value is reported as more than 115.3.

For the compound `CC(=O)N1CC(Nc2ncc3cc(-c4c(F)ccc(NS(=O)(=O)N5CC[C@@H](F)C5)c4F)c(=O)n(C)c3n2)C1` [Example 22, (3R)-N-[3-[2-[(1-acetylazetidin-3-yl)amino]-8-methyl-7-oxopyrido[2,3-d]pyrimidin-6-yl]-2,4-difluorophenyl]-3-fluoropyrrolidine-1-sulfonamide], the equilibrium dissociation constant (Kd) in assay [1] turned out to be 20.8 nM; in assay [2], 7.1 nM. In addition, the 50% inhibitory concentration (IC50) in assay [3] is 184 nM. Moreover, the EC50 in assay [4] is not below 10000 nM. Also, in assay [4], the “Fold Selectivity HCT-116 EC50-50/ A375” value is listed as more than 54.4.

For the compound `CC(=O)N[C@H]1CC[C@H](Nc2ncc3cc(-c4c(F)ccc(NS(=O)(=O)N5CC[C@@H](F)C5)c4F)c(=O)n(C)c3n2)C1` [Example 24, N-[(1S,3S)-3-[[6-[2,6-difluoro-3-[[(3R)-3-fluoropyrrolidin-1-yl]sulfonylamino]phenyl]-8-methyl-7-oxopyrido[2,3-d]pyrimidin-2-yl]amino]cyclopentyl]acetamide], the Kd in assay [1] came out at 27.5 nM. In assay [2], this compound showed a Kd of 8.2 nM. Also, the IC50 in assay [3] was 126 nM. Further, in assay [4], the EC50 stood at 8870 nM and the “Fold Selectivity HCT-116 EC50-50/ A375” value came to 70.7.

In turn, `CC(=O)NCCCCCNc1ncc2cc(-c3c(F)ccc(NS(=O)(=O)N4CC[C@@H](F)C4)c3F)c(=O)n(C)c2n1` [Example 25, N-[5-[[6-[2,6-difluoro-3-[[(3R)-3-fluoropyrrolidin-1-yl]sulfonylamino]phenyl]-8-methyl-7-oxopyrido[2,3-d]pyrimidin-2-yl]amino]pentyl]acetamide] gave a Kd in assay [1] of 26.8 nM. Also, in assay [2], binding was characterised by a dissociation constant (Kd) of 12.2 nM. Further, the half-maximal inhibitory concentration (IC50) in assay [3] turned out to be 44 nM. For the same compound, in assay [4], the EC50 is 3180 nM and the “Fold Selectivity HCT-116 EC50-50/ A375” value stood at 72.3.

The compound `CC(=O)N1CCC(O)(CCNc2ncc3cc(-c4c(F)ccc(NS(=O)(=O)N5CC[C@@H](F)C5)c4F)c(=O)n(C)c3n2)CC1` [Example 26, (3R)-N-[3-[2-[2-(1-acetyl-4-hydroxypiperidin-4-yl)ethylamino]-8-methyl-7-oxopyrido[2,3-d]pyrimidin-6-yl]-2,4-difluorophenyl]-3-fluoropyrrolidine-1-sulfonamide] gave a Kd in assay [1] of 27.5 nM. Further, binding in assay [2] was put at a Kd of 9.4 nM. Also, in assay [3], the IC50 amounted to 271 nM. Further, in assay [4], the concentration giving a half-maximal response (EC50) is not below 10000 nM and the “Fold Selectivity HCT-116 EC50-50/ A375” value is more than 36.9.

With `CC(=O)N(C)CCCNc1ncc2cc(-c3c(F)ccc(NS(=O)(=O)N4CC[C@@H](F)C4)c3F)c(=O)n(C)c2n1` [Example 27, N-[3-[[6-[2,6-difluoro-3-[[(3R)-3-fluoropyrrolidin-1-yl]sulfonylamino]phenyl]-8-methyl-7-oxopyrido[2,3-d]pyrimidin-2-yl]amino]propyl]-N-methylacetamide], the equilibrium dissociation constant (Kd) in assay [1] was 41.9 nM. The same compound came in with a dissociation constant Kd in assay [2] of 9.6 nM. Further, in assay [3], the IC50 is 54.8 nM. In assay [4], the EC50 worked out at 1830 nM and the “Fold Selectivity HCT-116 EC50-50/ A375” value was found to be 33.4.

`CC(=O)N1CCC(CCCNc2ncc3cc(-c4c(F)ccc(NS(=O)(=O)N5CC[C@@H](F)C5)c4F)c(=O)n(C)c3n2)CC1` [Example 28, (3R)-N-[3-[2-[3-(1-acetylpiperidin-4-yl)propylamino]-8-methyl-7-oxopyrido[2,3-d]pyrimidin-6-yl]-2,4-difluorophenyl]-3-fluoropyrrolidine-1-sulfonamide] returned a Kd in assay [1] of 53 nM. The compound further showed a Kd in assay [2] of 14.7 nM. In addition, the IC50 in assay [3] amounted to 33.4 nM. Further, in assay [4], the EC50 was 1370 nM and the “Fold Selectivity HCT-116 EC50-50/ A375” value came to 40.9.

As to `CC(=O)NCCOCCNc1ncc2cc(-c3c(F)ccc(NS(=O)(=O)N4CC[C@@H](F)C4)c3F)c(=O)n(C)c2n1` [Example 29, N-[2-[2-[[6-[2,6-difluoro-3-[[(3R)-3-fluoropyrrolidin-1-yl]sulfonylamino]phenyl]-8-methyl-7-oxopyrido[2,3-d]pyrimidin-2-yl]amino]ethoxy]ethyl]acetamide], the equilibrium dissociation constant (Kd) is 60.1 nM in assay [1] and 20.1 nM in assay [2]. The IC50 in assay [3] is 375 nM. Moreover, the EC50 in assay [4] was not below 10000 nM. The “Fold Selectivity HCT-116 EC50-50/ A375” value in assay [4] was more than 26.7.

In the case of `CCN(C)S(=O)(=O)Nc1ccc(F)c(-c2cc3cnc(NCCCN(C)C(C)=O)nc3n(C)c2=O)c1F` [Example 30, N-[3-[[6-[3-[[ethyl(methyl)sulfamoyl]amino]-2,6-difluorophenyl]-8-methyl-7-oxopyrido[2,3-d]pyrimidin-2-yl]amino]propyl]-N-methylacetamide], the affinity in assay [1], expressed as Kd, was 159 nM. Besides, in assay [2], binding was put at a Kd of 72.3 nM. For the same compound, the half-inhibitory concentration (IC50) in assay [3] was determined as 287 nM. Moreover, in assay [4], the EC50 amounted to 5700 nM and the “Fold Selectivity HCT-116 EC50-50/ A375” value was determined as 19.8.

In the case of `CC(=O)N1CCN(CCNc2ncc3cc(-c4c(F)ccc(NS(=O)(=O)N5CC[C@@H](F)C5)c4F)c(=O)n(C)c3n2)CC1` [Example 31, (3R)-N-[3-[2-[2-(4-acetylpiperazin-1-yl)ethylamino]-8-methyl-7-oxopyrido[2,3-d]pyrimidin-6-yl]-2,4-difluorophenyl]-3-fluoropyrrolidine-1-sulfonamide], the Kd in assay [1] was 52.2 nM; in assay [2] it was 21 nM. Further, the IC50 in assay [3] worked out at 79.8 nM. Moreover, the EC50 in assay [4] is 6400 nM. For the same compound, the “Fold Selectivity HCT-116 EC50-50/ A375” value in assay [4] stood at 80.2.
